Data published in US9247742B2 (priority 2012, dated 2016).
Where two headings read alike, the source gives them in different places.

What was measured:
[1] = tested on: Magnaporthe oryzae; type: in vivo; details: 1-day protective; for B % DC: component B alone; for A % DC: component A (777) alone
[2] = tested on: Magnaporthe oryzae; type: in vivo; details: 1-day curative/protective; for B % DC: component B alone; for A % DC: component A (777) alone

CO/C=C(/C(=O)OC)c1ccccc1Oc1cc(Oc2ccccc2C#N)ncn1 [Azoxystrobin, methyl (αE)-2-[[6-(2-cyanophenoxy)-4-pyrimidinyl]oxy]-α-(methoxymethylene)benzeneacetate]
B % DC ([1]; Rate B 0.025 ai ppm): 9% | B % DC ([1]; Rate B 0.1 ai ppm): 19% | B % DC ([1]; Rate B 0.4 ai ppm): 30% | B % DC ([1]; Rate B 1.56 ai ppm): 0%

O=C(Nc1ccccc1-c1ccc(Cl)cc1)c1cccnc1Cl [Boscalid, 2-chloro-N-(4′-chloro[1,1′-biphenyl]-2-yl)-3-pyridinecarboxamide]
B % DC ([2]; Rate B 400 ai/ppm): 69%

CCC1(C(=O)NC(C)c2ccc(Cl)cc2)C(C)C1(Cl)Cl (stereo not drawn) [Carpropamid, 2,2-dichloro-N-[1-(4-chlorophenyl)ethyl]-1-ethyl-3-methylcyclopropanecarboxamide]
B % DC ([1]; Rate B 0.1 ai ppm): 2% | B % DC ([1]; Rate B 0.4 ai ppm): 23%

C[C@H]1O[C@H](O[C@H]2[C@H](O)[C@@H](O)[C@@H](O)[C@H](O)[C@@H]2O)[C@@H](N)C[C@@H]1NC(=N)C(=O)O [Kasugamycin, 3-O-[2-amino-4-[(carboxylminomethyl)amino]-2,3,4,6-tetradeoxy-α-D-arabino-hexopyranosyl]-D-chiro-inositol]
B % DC ([2]; Rate B 1.56 ai/ppm): 69% | B % DC ([2]; Rate B 6.25 ai/ppm): 68% | B % DC ([2]; Rate B 25 ai/ppm): 74%

C=CCOC1=NS(=O)(=O)c2ccccc21 [Probenazole, 3-(2-propenyloxy)-1,2-benzisothiazole 1,1-dioxide]
B % DC ([2]; Rate B 3.12 ai/ppm): 69% | B % DC ([2]; Rate B 12.5 ai/ppm): 78%

Cc1cccc2sc3nncn3c12 [Tricyclazole, 5-methyl-1,2,4-triazolo[3,4-b]benzothiazole]
B % DC ([2]; Rate B 0.1 ai/ppm): 71% | B % DC ([1]; Rate B 0.025 ai ppm): 0% | B % DC ([1]; Rate B 0.1 ai ppm): 0% | B % DC ([1]; Rate B 0.4 ai ppm): 23%

COc1ccnc(C(=O)N[C@H]2COC(=O)[C@H](Cc3ccccc3)[C@@H](OC(=O)C(C)C)[C@H](C)OC2=O)c1OCOC(=O)C(C)C [compound 777]
A % DC ([2]; Rate A 0.1 ai/ppm): 28% | A % DC ([2]; Rate A 0.4 ai/ppm): 50% | A % DC ([2]; Rate A 1.56 ai/ppm): 67% | A % DC ([2]; Rate A 6.25 ai/ppm): 81% | A % DC ([1]; Rate A 0.025 ai ppm): 0% | A % DC ([1]; Rate A 0.1 ai ppm): 21% | A % DC ([1]; Rate A 0.25 ai ppm): 0% | A % DC ([1]; Rate A 0.4 ai ppm): 61%
